Measurements reported in patent publication US7087658B2, “Water-soluble coating agents bearing initiator groups” (SurModics, Inc., priority 1999, dated 2006).

Experiments:
[1] = tested on: intrinsic and common pathways of coagulation; assay: Partial thromboplastin time (PTT) test; format: biochemical
Procedure: A useful test in determining the hemocompatibility of a reagent is the partial thromboplastin time (PTT) test. The PTT is a test of the intrinsic (factors VIII, IX, XI, and XII) and common (fibrinogen, prothrombin, factors V and X) pathways of coagulation. A mixture of plasma and phospholipid platelet substitute (rabbit brain cephalin) is recalcified and the time required for the appearance of fibrin strands measured.
The PTT was tested to determine whether Compound I or Compound II have the ability to extend the control PTT. A test tube of rabbit brain cephalin (Sigma #RBC) in 0.85% NaCl and a test tube of 0.02 M CaCl2 was brought to 37° C. in a water bath. Dade Ci-trol coagulation control lyophilized plasma (Dade International, Inc., product no. 34224-10) was reconstituted in sterile deionized water. In 10×75 mm glass test tubes, 100 μl reconstituted plasma and 100 μl RBC were mixed and incubated at 37° C. in a water bath for 5 minutes. Next, 50 μl of sample (deionized water, a photocrosslinkable polyvinylpyrrolidone (available from SurModics, Inc., product no. PVO5), or Compound I or II) was added and mixed. While simultaneously starting a stop watch, 100 μl of 0.02 M CaCl2 was added to initiate the clotting cascade. After 40 seconds had passed, the test tubes were shaken lightly, observed for fibrin formation, and the number of seconds was recorded.
All samples were tested in duplicate. The appropriate control PTT, depending upon what solvent in which the reagent was dissolved, was subtracted from the average PTT for the reagent to give the time the control PTT was extended.

platelets = assay: Platelet attachment and activation from platelet rich plasma (SEM); format: cell-based, human; conditions: coated polyethylene (PE); for Platelet activation, spreading and aggregation: SEM
Procedure: The surface-modified materials were incubated with platelet rich plasma (PRP), observed with a scanning electron microscope and photographed to determine the influence of surface chemistry on platelet attachment and activation.
Blood was collected fresh from human volunteers into 3.8% (v/v) sodium citrate solution using 9:1 ratio of blood to anticoagulant. The blood was centrifuged at 1200 rpm for 15 minutes to separate PRP from blood. The PRP was collected and kept at room temperature until used (less than 1 hour).
The test samples (½-inch circles) were placed in a 6-well plate, 1 sample per well. The PRP solution was added onto the top of the samples until the entire surface of the sample was covered, and the samples were incubated one hour at room temperature with no agitation. To quantify the platelet solution, a sample of the PRP was taken and diluted 1:100 with 1% (v/v) Oxalate Ammonium. A capillary tube was used to transfer a small amount of solution to a hemacytometer, and the sample was incubated in a covered petri dish for 30 minutes at room temperature for the platelets to settle.
The platelets were counted under a phase contrast microscope and determined to be approximately 50–100×10^9 platelets/L. After incubation, the PRP was removed carefully by aspiration and 3 mls of Tyrode's buffer (138-mM NaCl, 2.9-mM KCl, 12-mM sodium bicarbonate, pH 7.4) gently added to each well. The plates were agitated slightly on an orbital shaker for 15 minutes; the solution was changed and the wash repeated. The wash solution was aspirated and 2.0 ml of Karnovsky's fixative (25-mls formaldehyde, 5-mls 25% glutaraldehyde, 20-mls of a solution of 23% NaH2PO4—H2O, 77% NaHPO4 anhydrous) were added to each well. The plate was wrapped with parafilm and incubated overnight at room temperature with slight agitation.
The fixative was aspirated off and the samples were washed 3 times each with pure water, 15 minutes each. […] The platelets were counted and judged by degree of activation and morphology.

[2] = tested on: Beta-Thromboglobulin (β-TG) released from the α-granules of platelets; assay: Beta-Thromboglobulin assay; format: cell-based, human; conditions: coated polyethylene; PRP, one hour at room temperature; enzyme immunoassay
Procedure: The surface-modified materials were incubated with PRP and the plasma was assayed for the Beta-Thromboglobulin (β-TG) released from the α-granules due to activation of the platelets. Blood was collected fresh from human volunteers into 3.8% (v/v) sodium citrate using 9:1 ratio of blood to anticoagulant. The blood was centrifuged at 1200 rpm for 15 minutes to separate PRP from blood. The PRP was collected and kept at room temperature until used (less than 1 h). The test samples (½-inch circles) were placed in a 6-well plate, 1 sample per well. The PRP solution was added onto the top of the samples until the entire surface of the sample was covered, and the samples incubated one hour at room temperature with no agitation. Control samples of plasma, for initial β-TG levels, were taken prior to incubation.
After incubation with the samples, prostaglandin E1 (Sigma, product no. P5515) was added to each sample and the plasma was assayed with an enzyme immunoassay kit (Asserachrom American Bioproduct, product no. 0250) for the amount of β-TG released.

[3] = final concentration 0.7 mg/ml, solvent H2O
[4] = final concentration 1.43 mg/ml, solvent H2O
[5] = final concentration 0.7 mg/ml, solvent 50% IPA
[6] = final concentration 1.29 mg/ml, solvent 50% IPA

Compound | Average PTT [1, 3] | Formed Clot [1, 3] | Time Extended Beyond Control PTT ([1]; final concentration 0.7 mg/ml, solvent H2O, DI H2O control subtracted) | Average PTT [1, 4] | Formed Clot [1, 4] | Time Extended Beyond Control PTT ([1]; final concentration 1.43 mg/ml, solvent H2O, DI H2O control subtracted) | Platelet activation, spreading and aggregation (platelets) | Morphology of platelets attached to modified surfaces (platelets; SEM photographs) | β-TG release [2] | Average PTT [1, 5] | Formed Clot [1, 5] | Time Extended Beyond Control PTT ([1]; final concentration 0.7 mg/ml, solvent 50% IPA, 50% IPA control subtracted) | Average PTT [1, 6] | Formed Clot [1, 6] | Time Extended Beyond Control PTT ([1]; final concentration 1.29 mg/ml, solvent 50% IPA, 50% IPA control subtracted) | Extension of the 50% IPA control PTT ([1]; higher of the two final concentrations tested, 50% IPA control) | Extension of PTT from water control ([1]; higher of the two final concentrations tested, water control)
O=C(c1ccccc1)c1ccc(COc2cc(S(=O)(=O)[O-])cc(S(=O)(=O)[O-])c2OCc2ccc(C(=O)c3ccccc3)cc2)cc1.[K+].[K+] [Compound I, 4,5-bis(4-benzoylphenylmethyleneoxy) benzene-1,3-disulfonic acid disodium salt] | 117 s | yes | 64 s | >3600 s | no | >3600 s | less activation and spreading | Full coverage, many aggregates, little | lower levels of β-TG release than the uncoated and PVO5 controls |  |  |  |  |  |  |  | 
O=C(c1ccccc1)c1ccc(COc2cc(S(=O)(=O)[O-])c(OCc3ccc(C(=O)c4ccccc4)cc3)cc2S(=O)(=O)[O-])cc1.[K+].[K+] [Compound II, 2,5-bis(4-benzoylphenylmethyleneoxy) benzene-1,4-disulfonic acid dipotassium salt] |  |  |  |  |  |  | some spreading pseudopodia, but little or no aggregating |  |  | 134 s | yes | 56 s | 3600 s | yes | 3522 s | 1 h | ≥ 1 h
